Measured values taken from paper PMC10233092, “Selective Janus kinase 1 inhibition resolves inflammation and restores hair growth offering a viable treatment option for alopecia areata” (Skin Health and Disease, 2023).

Tested on: C3H/HeJ mouse model of AA
Test: Cellularity and flow cytometry of spleen and skin draining lymph nodes
Type: in vivo
Conditions: AA mice
Method: Cutaneous lymph nodes and spleens from mice treated either orally or topically (treated and untreated side, respectively) were pooled and minced in DPBS/2% FBS/2 mM EDTA, filtered through […] strainers and spun at 350 g for 5 min. Blood was collected in EDTA‐coated tubes and red blood cells were lysed using BD FACS lysing solution (as was red blood cells from spleen single cell suspensions). Cell differential were obtained from haematology analyzer Sysmex XE‐2100 (Sysmex Corporation, Japan). Equal cell numbers for each sample were incubated with anti‐mouse CD16/CD32 block to prevent unspecific binding and then stained for 30 min at 4°C with the following anti‐mouse antibodies (all from BD); FITC CD3e (145‐2C11), APC‐Cy7 TCRβ (H‐57‐597), BV510 or BV786 CD8α (53‐6.7), BV711 NKG2D (Cx5), BUV395 CD4 (GK1.5), BV711 or BV605 CD44 (IM7), BUV395 CD45 (30‐F11), PerCP‐Cy5.5 CD19 (1D3) and PE‐Cy7 CD62L (MEL‐14). […] The cells were analyzed on a BD LSRII flow cytometer and analysis was performed with FlowJo (Tree Star) software.

With COCC(C(=O)Nc1cccc2c(-c3nc(Nc4cccc(S(C)(=O)=O)c4F)ncc3F)c[nH]c12)N1CCN(C)CC1 (centres unmarked) [Cmpd C] the “hypercellularity of skin draining LNs and spleen” value (systemic (oral 12.5 mg/kg/day, 2 weeks)) was “drastically reduced” and the “hypercellularity of skin draining LNs and spleen” value (topical treatment (0.01% cream, 2 weeks)) was “only marginally affected”.
